Measurements reported in PMC7352342, “Inhibition of Patched Drug Efflux Increases Vemurafenib Effectiveness against Resistant Braf^V600E Melanoma” (Cancers, 2020).
Read-outs that look alike come from different tables or passages of the source.

Key:
Type in all cases: cell-based, human
MeWo cells [1] = test: Dxr efflux measurement by fluorescence microscopy, MeWo cells; conditions: 30 min in efflux buffer
Method: Dxr efflux measurements were carried out as previously described. Cells were seeded on coverslips in 24-well plates and allowed to grow to 80% confluence. Coverslips were incubated at 37 °C and 5% CO2 with 10 μM dxr in physiological buffer (140 mM NaCl, 5 mM KCl, 1 mM CaCl2, 1 mM MgSO4, 5 mM glucose, 20 mM HEPES, pH 7.4). After 2 h, three coverslips were immediately fixed with 4% PFA for the dxr loading control, rapidly washed with PBS and mounted in SlowFade Gold antifade reagent with DAPI (Invitrogen). The other coverslips (triplicated per condition) were incubated with physiological buffer supplemented with DMSO or 10 µM of PAH under gentle shaking at room temperature and protected from light. After 30 min, coverslips were fixed with 4% PFA, washed, and mounted as described above. For competition on dxr loading, A375 and WM9R cells seeded on coverslips were incubated for 1 h at 37 °C and 5% CO2 with 10 μM dxr in physiological buffer in the presence or the absence of 100 µM vemurafenib. Images were acquired with a Zeiss Axioplan 2 fluorescence microscope coupled to a digital charge-coupled device camera using a 40×/1.3 Plan NeoFluar objective and filters for Alexa 594. Dxr fluorescence was quantified using ImageJ software. Sampling of cells was performed randomly. About 100 cells (from three wells) were scored per condition per experiment.

A375 cells = test: BODIPY-cholesterol efflux measurement, A375 cells; conditions: sPAH in efflux buffer, 30 min
[2] = Cytotoxicity assay (neutral red), MeWo cells; conditions: human, MeWo melanoma cells, MeWo; 24 or 48 h; read-out: sPAH-IC50 (cytotoxicity of sPAH alone)
Method: (§1) Human melanoma cell lines A375 and MeWo were purchased from ATCC, and cultured in DMEM medium supplemented with 10% fetal bovine serum and penicillin/streptomycin (Invitrogen) at 37 °C in a 5% CO2/95% water-saturated air atmosphere. Melanoma cell lines SKMEL 28, SKMEL V3, WM9S, and WM9R were provided by Robert Ballotti (C3M, Nice, France). MeWo-dxrR cells were obtained by adding increasing concentrations of doxorubicin, up to 0.2 µM, in the culture medium over 6 months. These cells were grown in medium supplemented with 0.2 µM dxr. WM9R cells were obtained by adding increasing concentrations of vemurafenib, up to 5 µM, in the culture medium over 6 months. These cells were grown in medium supplemented with 5 µM vemurafenib. HEK cells were grown in 75 mm tissue culture dishes (Falcon, Franklin Lakes, NJ, USA) in Dulbecco’s modified Eagle’s medium (Gibco, Life Technologies, Saint Aubin, France) supplemented with 10% fetal calf serum (Hyclone, Thermo Fisher Scientific GMBH, Ulm, Germany) and 1% penicillin/streptomycin (Gibco, Life Technologies, Saint Aubin, France) in a humidified incubator at 37 °C (5% CO2).
(§2) Cells were seeded in 96-well plates in triplicate and grown in medium to achieve 70 to 80% confluence. Medium was then removed and replaced with 100 µL/well of complete medium containing PAH or DMSO as a control. After 2 h, 100 µL of complete medium containing serial dilutions of dxr, cisplatin or vemurafenib were added. Plates were incubated at 37 °C and 5% CO2. After 24 or 48 h, cells were incubated for 3 h at 37 °C with 100 µL/well neutral red (NR) solution (50 µg/mL in medium) following the manufacturer’s protocol. Measurements were made in microplate readers (Multiskan Go Microplate Spectrophotometer from Thermo Scientific).

MeWo cells [3] = test: Cytotoxicity assay (neutral red), MeWo cells
Method: as §1, §2

COc1cc(C)c(CC/C(C)=C/Cc2cc(O)ccc2O)c(C)c1C [sPAH, Panicein A hydroquinone]
inhibition of dxr efflux, synthetic compared with natural PAH (MeWo cells [1]): as efficiently as the natural PAH | efflux of BODIPY-cholesterol (A375 cells): inhibited the efflux of cholesterol | IC50 [2]: 36 ± 2.3 µM | IC50 (MeWo cells [3]; MeWo cells, 2 µM Dxr present, listed as Synthetic PAH, read-out: IC50 of PAH at 2 µM Dxr): 8.1 ± 1.3 µM | IC50 (MeWo cells [3]; MeWo, 24 or 48 h, read-out: sPAH-IC50 (cytotoxicity of sPAH alone)): ~40 µM | IC50 of cisplatin in the presence of sPAH (MeWo cells [3]; MeWo, sPAH 20 µM vs DMSO (Figure S2)): significantly decreased
